Assay results as given in patent publication US20220331348A1, “METHOD OF PREPARING PENTACYCLIC TRITERPENOID SAPONINS AND DRUG COMPOSITION” (CHINA PHARMACEUTICAL UNIVERSITY, priority 2019, published 2022).

Tests used:
AMPK in Huh-7 cells = assay: Activation activity on AMPK in Huh-7 cells (Western Blot); type: cell-based; conditions: 12 h, relative to DMSO = 1
Method: The activation activity of a compound on AMPK in Huh-7 cells was detected by using Western Blot.
Cell culture conditions: Huh-7 cells were cultured in an incubator with 5% CO2 at 37° C. in DMEM complete medium (containing 10% fetal calf serum and 1% streptomycin/penicillin).
Antibody: anti-AMPK (CST, 2532S); anti-pAMPK (CST, 2535S).
Western Blot experiment: the influence of the compound on phosphorylation level of the AMPK in the Huh-7 cells was detected: cells with more than 90% cells alive were taken for the experiment. In a 12-well plate, the Huh-7 cells were plated in the plate at 250000 cells per well, the plate was placed in the incubator with 5% CO2 at 37° C. for culture, an original culture medium was discarded after 12 h, a complete medium containing the pentacyclic triterpenoid saponin was added, a final concentration of subject pentacyclic triterpenoid saponin was set to be 10 μM, and an administration time was set to be 12 h. A positive control compound employs AICAR (100 μM), metformin (70 μM) or A-769662 (100 μM). Then proteins were extracted for Western Blot detection.
Experimental result: a Western Blot experimental result was subjected to gray scale scanning, a p-AMPK/AMPK ratio of negative control DMSO was defined as 1, and a p-AMPK/AMPK ratio of the subject compound was a relative ratio of a negative control group. The larger the numerical value was, the stronger the activation activity of the AMPK of the compound was.

[1] = tested on: ulcerative colitis model mice induced by DSS; assay: Dextran sulphate sodium salt (DSS) induced ulcerative colitis model mice; type: in vivo, mouse; conditions: DSS-induced mice; dose not given; vs model group
Method: C57BL/6 male mice with 6-8 weeks old were selected; a control group was fed with purified water; and a model group, a treatment group and a positive control group were fed with purified water containing 2% dextran sulphate sodium salt (DSS) (36000-50000 M.Wt) for 7 days and then with the purified water for 3 days, and drug intervention was conducted at the same time. The mice in the control group and the model group were orally administered with carboxymethyl cellulose sodium as a placebo, the mice in the treatment group were orally administered with the ziyuglycoside II (purchased from Shanghai Boka Chemistry Technology Co., Ltd) (with a dosage of 5 mg/kg), and the mice in the positive control group were orally administered with 5-aminosalicylic acid as a clinical drug (5-ASA, purchased from Shanghai Sangon Biological Engineering Co., Ltd) (with a dosage of 100 mg/kg). In the administration process, weight changes, feces characters and hematochezia conditions of the mice were observed and recorded every day and were scored, and disease activity indexes were calculated (Disease activity index, DAI).
A scoring rule and a calculation method were as follows: DAT=(weight score+diarrhea score+occult blood score)/3, wherein weight score: 0 (weight gained or unchanged), 1 (weight lost by 1-5%), 2 (weight lost by 6-10%), 3 (weight lost by 11-15%), 4 (weight lost by 15% or above); diarrhea score: 0 (normal feces), 2 (soft feces), 4 (feces sticking anuses or diarrhea); and occult blood score: 0 (negative occult blood), 2 (positive occult blood), and 4 (visible bleeding). Comparing differences in DAI of various groups, it can be known that the ziyuglycoside II has significant prevention and treatment effects on ulcerative colitis of the mice modeled by the dextran sulphate sodium salt (DSS).
The above mice were sacrificed by cervical dislocation at day 11, colon tissues were harvested, lengths of the colon tissues were measured for statistical summary, and differences in colon length of various groups were compared, from which, the ziyuglycoside II has significant prevention and treatment effect on the ulcerative colitis model mice.
Middle segments, with lengths of about 1 cm, of the colon tissues of the above mice were selected, soaked in a formalin solution for fixing overnight, embedded with paraffin and sliced, and the slices were subjected to HE staining. […] Particularly, compared with the positive drug group, the ziyuglycoside II has the advantage of maintaining a thickness of a muscular layer.
10 mg of proximal rectum segments of the colon tissues of the above mice were selected, PBS was added for homogenization, and centrifugation was conducted for taking a supernate. The supernate was subjected to ELISA detection, and protein quantification was conducted for inflammatory factors TNF-α and IL-lb.
10 mg of colon tissues of the above mice were selected for detection of ROS therein.
When the ulcerative colitis occurs, the inflammatory factors may destruct tight junction between intestinal tracts, and destruction of the tight junction enables functions of mucosal barriers to be lost and accelerates development of the diseases. 5 mg of colon tissues of the above mice were selected for qPCR analysis. […] This hints that the ziyuglycoside II further has the efficacy of increasing the expression level of the tight junction and then protecting a structure of each colon. […] Therefore, the ziyuglycoside II is expected to be useful for preparing the drug for preventing or treating the inflammatory bowel diseases such as the ulcerative colitis.

[2] = tested on: TNBS modeled Crohn's disease model mice; assay: 2,4,6-trinitrobenzene sulfonic acid (TNBS) modeled Crohn's disease model mice; type: in vivo, mouse; conditions: dose not given
Method: C57BL/6 male mice with 6-8 weeks old were selected and randomly divided into a control group, a mode group, a treatment group and a positive control group. Expect for the control group, after the mice in the rest groups anesthetized with isoflurane, hoses were carefully inserted into colons of the mice from anuses, and […] of 1.5% 2,4,6-trinitrobenzene sulfonic acid (TNBS) was slowly injected. Before the hoses were pulled out, the mice were placed upside down for 1 min. First intragastric administration was conducted at the day of enema treatment, the mice in the control group and the model group were orally administered with carboxymethyl cellulose sodium as a placebo, the mice in the treatment group were orally administered with the ziyuglycoside II (purchased from Shanghai Boka Chemistry Technology Co., Ltd) (with a dosage of 5 mg/kg), and the mice in the positive drug group were orally administered with 5-aminosalicylic acid as a clinical drug (5-ASA, purchased from Shanghai Sangon Biological Engineering Co., Ltd) (with a dosage of 100 mg/kg). Administration was continuously conducted for 7 days. In the administration process, the states of the mice were observed every day, and weight changes of the mice were recorded.
Differences in weight change of the mice in various groups were compared, from which, ziyuglycoside II has the treatment effect on the 2, 4, 6-trinitrobenzene sulfonic acid (TNBS) modeled Crohn's disease model mice.
The above mice were sacrificed by cervical dislocation at day 8, colon tissues were harvested, lengths of the colon tissues were measured for statistical summary, and differences in colon length of various groups were compared, from which, the ziyuglycoside II has significant treatment effect on the Crohn's disease model mice. […] 10 mg of proximal rectum segments of the colon tissues of the above mice were selected, PBS was added for homogenization, and centrifugation was conducted for taking a supernate. The supernate was subjected to ELISA detection, and protein quantification was conducted for inflammatory factors TNF- and IL-1. […] Myeloperoxidase (MPO) is an enzyme specific to neutrophils, and the amount of the neutrophils in the intestinal tracts may be reflected by detecting the MPO level. 5 mg of proximal rectum segments of the colon tissues of the above mice were selected, PBS was added for homogenization, and the content of the MPO in a homogenate was detected with a MPO kit (purchased from Nanjing Jiancheng Bioengineering Institute). […] Therefore, the ziyuglycoside II is expected to be useful for preparing the drug for preventing or treating the inflammatory bowel diseases such as the Crohn's disease.

For NC(=O)c1ncn([C@@H]2O[C@H](CO)[C@@H](O)[C@H]2O)c1N [AICAR, reference compound], the pAMPK/AMPK ratio (AMPK in Huh-7 cells; positive control 100 μM) was 1.47.

In the case of CC1(C)CC[C@]2(C(=O)O)CC[C@]3(C)C(=CCC4[C@@]5(C)CC[C@H](O[C@@H]6O[C@H](C(=O)O)[C@@H](O)[C@H](O)[C@H]6O)C(C)(C)[C@@H]5CC[C@]43C)[C@@H]2C1 (stereo partly shown) [(III), calunduloside E], the pAMPK/AMPK ratio (AMPK in Huh-7 cells; 10 μM, Western Blot gray scale) is reported as 1.54.

With CC1(C)CC[C@]2(C(=O)O)CC[C@]3(C)C(=CC[C@@H]4[C@@]5(C)CC[C@H](O[C@@H]6O[C@H](C(=O)O)[C@@H](O)[C@H](O[C@@H]7OC[C@@H](O)[C@H](O)[C@H]7O)[C@H]6O)C(C)(C)[C@@H]5CC[C@]43C)[C@@H]2C1 [(IV), kochioside Ic] the pAMPK/AMPK ratio (AMPK in Huh-7 cells; 10 μM, Western Blot gray scale) was 1.75.

CC1(C)CC[C@]2(C(=O)O)CC[C@]3(C)C(=CCC4[C@@]5(C)CC[C@H](O[C@@H]6OC[C@H](O)[C@H](O)[C@H]6O)C(C)(C)[C@@H]5CC[C@]43C)[C@@H]2C1 (stereo partly shown) [(XIV), asperosaponin C] was tested, and the pAMPK/AMPK ratio (AMPK in Huh-7 cells; 10 μM, Western Blot gray scale) was 2.23.

For reinioside C [(IX)], the “DAI scores of the treatment group” value [1] was “obviously lower than those of the model group”, the pAMPK/AMPK ratio (AMPK in Huh-7 cells; 10 μM, Western Blot gray scale) was 1.88 and the “colon length of the treatment group compared with the control group” value [2] was “nearly no difference”. For the same compound, the “expression level of inflammatory factor IL-1β” value ([2]; vs model group) was “significantly lower than those of the model group” and the “expression level of inflammatory factor TNF-α” value ([2]; vs model group) was “significantly lower than those of the model group”.

Compound CC1(C)CC[C@]2(C(=O)O)CC[C@]3(C)C(=CC[C@@H]4[C@@]5(C)CC[C@H](O[C@@H]6O[C@H](CO)[C@@H](O)[C@H](O)[C@H]6O)C(C)(C)C5CC[C@]43C)[C@H]2C1 (stereo partly shown) [(XVI), hederin A2] has a pAMPK/AMPK ratio (AMPK in Huh-7 cells; 10 μM, Western Blot gray scale) of 2.05.

CN(C)C(=N)N=C(N)N [Metformin, reference compound] was tested, and the pAMPK/AMPK ratio (AMPK in Huh-7 cells; positive control 70 μM) was 1.22.

Compound C[C@@H]1OC(O[C@H]2[C@H](O[C@H]3CC[C@]4(C)[C@H]5CC=C6[C@@H]7CC(C)(C)CC[C@]7(C(=O)O)CC[C@@]6(C)[C@]5(C)CC[C@H]4C3(C)C)OC[C@H](O)[C@@H]2O)[C@H](O)[C@H](O)[C@H]1O (stereo partly drawn) [(XV), β-hederin] has a pAMPK/AMPK ratio (AMPK in Huh-7 cells; 10 μM, Western Blot gray scale) of 2.87.

For N#Cc1c(O)c2c(-c3ccc(-c4ccccc4O)cc3)csc2[nH]c1=O [Compound A-769662, A-769662, reference compound], the pAMPK/AMPK ratio (AMPK in Huh-7 cells; positive control 100 μM) was 2.59.
